For this assay, the system named is RSK-substrates (RXXpS/T phospho-peptides). Description: Phospho-proteomics with anti-RXXpS/T enrichment in IFN-γ-stimulated macrophages. It is filed as cell-based, human. The following applies: BI-D1870 +IFNg, IP:RXXpS/T, DMSO = 1.00. As to the method: (FIG. 6A) Scheme of phospho-proteomics. Human PBMC-derived macrophages were treated with DMSO or BI-D1870 for two hours followed by IFN-γ stimulation for subsequent proteolysis and phospho-peptide enrichment using the anti-RXXpS/T antibody strategy. […] N=2 donors. […] The average shortest distance of the same number of randomly selected genes to disease genes was calculated for N=250 realizations in order to compare the average shortest distance value to random expectation. Empirical p-values were calculated based on 100 degree-preserved randomizations of the first neighbor networks.
Phospho-proteomics. Phospho-peptide immunoaffinity purification from cell lysates was performed as described previously (36), with minor modifications. Human PBMC-derived macrophages were pretreated with DMSO or BI-D1870 followed by IFN-γ stimulation. Cell lysates (8.0 mg) were proteolyzed (Lys-C, Wako Chemicals) using in-solution urea strategy detailed previously (34). Trifluoroacetic acid (TFA) was added to protein digests to a final concentration of 1%, precipitate was removed by centrifugation, and digests were loaded onto Sep-Pak C18 columns (Waters) equilibrated with 0.1% TFA. Columns were washed with 0.1% TFA and wash buffer (0.1% TFA, 5% acetonitrile). A peptide fraction was obtained by elution with elution buffer (0.1% TFA, 40% acetonitrile). The peptide eluate was frozen overnight and lyophilize frozen peptide solution for 2 days. Peptides were dissolved in 1.4 mL of IAP buffer (Cell signaling Technology). Insoluble matter was removed by centrifugation. […] The immobilized antibody beads were washed three times with 1 ml IAP buffer and three times with 1 ml water, all at 4° C. Peptides were eluted from beads by incubation with 55 μl of 0.15% TFA at room temperature for 10 minutes (eluate 1), followed by a wash of the beads (eluate 2) with 50 μl of 0.15% TFA. Both eluates were combined. The peptide solution was desalted using Oasis Hlb 1 cc columns (Waters), dried in a SpeedVac, resuspend with Trypsin solution, and digested overnight. After desalting using Oasis Hlb 1 cc columns, peptides were dried in a SpeedVac, and resuspend with 40 μl of 5% acetonitrile and 0.5% formic acid for subsequent analysis by liquid chromatography/mass spectrometry (LC/MS).
Each peptide sample was analyzed four times: a full scan range of 350-1800 m/z and three gas phase separation scans—350-500 m/z, 500-700 m/z, and 700-1200 m/z in order to increase phospho-peptide signals.
Phospho-proteomics and kinase assays. The MS/MS data were queried as above using a 10-ppm tolerance window in the MS1 search space, and a 0.02 Da fragment tolerance window for EThcD or HCD. Methionine oxidation, and phosphorylation of serine and threonine were set as variable modifications, and carbamidomethylation of cysteine residues was set as fixed modifications. High confidently assigned phospho-peptides were used for precursor ion area under the curve (AUC) quantification. The peptides that were detected in IgG conditions were considered as non-specific signals and excluded. The normalized precursor ion intensities were exported from PD2.1.

Consider `CC(C)CCN1c2nc(Nc3cc(F)c(O)c(F)c3)ncc2N(C)C(=O)C1C` (stereo not drawn) [BI-D1870], for which the “Intensity of phospho-peptide SLC20A1 S335 [R].ERLPSVDLK.[E]” value (DMSO +IFNg = 1.51) is given as 0.51. Besides, the “Intensity of phospho-peptide LUC7L3 T238 [R].KRTEEPDRDER.[L]” value (DMSO +IFNg = 1.55) was found to be 1.03. Moreover, the “Intensity of phospho-peptide STX7 S129 [R].ASSRVSGSFPEDSSK.[E]” value (DMSO +IFNg = 1.60) is given as 0.67. Where the note is “DMSO +IFNg = 1.67”, the “Intensity of phospho-peptide AP1AR T228 [R].SKTEEDILR.[A]” value was 0.80. For the same compound, under “DMSO +IFNg = 1.68”, the “Intensity of phospho-peptide AKAP13 T2471 [R].RAETFGGFDSHQMNASK.[G]” value amounted to 0.73. Under “DMSO +IFNg = 1.75”, the “Intensity of phospho-peptide CLASP1 S646 [R].RQSSGSATNVASTPDNR.[G]” value came to 0.94 and the “Intensity of phospho-peptide TRPM7 S1504 [R].RPSTEDTHEVDSK.[A]” value is on record as 0.73. Moreover, the “Intensity of phospho-peptide SLC4A7 S407 [R].ENSTVDFSK.[VEG]” value (DMSO +IFNg = 1.79) was found to be 1.61. Further, the “Intensity of phospho-peptide IFNGR1 T295 [R].SATLETKPESK.[Y]” value (DMSO +IFNg = 1.83) stood at 0.77. Besides, the “Intensity of phospho-peptide RPS6 S235 [K].RRRLSSLRASTSK.[S]” value (DMSO +IFNg = 1.86) was 0.74. For the setting “DMSO +IFNg = 1.91”, the “Intensity of phospho-peptide REPS1 S650 [R].LKSEDELRPEVDEHTQK.[T]” value came to 0.94. Besides, the “Intensity of phospho-peptide REPS1 S650 [R].RLKSEDELRPEVDEHTQK.[T]” value (DMSO +IFNg = 1.96) was found to be 1.09. For the setting “DMSO +IFNg = 2.05”, the “Intensity of phospho-peptide GPBP1 S49 [R].HNSSDGFDSAIGRPNGGNFGR.[K]” value came to 0.45. For the same compound, under “DMSO +IFNg = 2.15”, the “Intensity of phospho-peptide MYO1E T935 [R].RNTTQNTGYSSGTQNANYPVR.[A]” value was determined as 0.88. Also, the “Intensity of phospho-peptide CHP1 T7 [R].ASTLLRDEELEEIKK.[E]” value (DMSO +IFNg = 2.18) came out at 1.00. Also, where the note is “DMSO +IFNg = 2.25”, the “Intensity of phospho-peptide NDRG3 S338 [R].THSTSSSLGSGESPFSR.[S]” value was 1.07. Further, for the setting “DMSO +IFNg = 2.28”, the “Intensity of phospho-peptide GPBP1 S49 [R].RHNSSDGFDSAIGRPNGGNFGR.[K]” value is 1.00. In addition, the “Intensity of phospho-peptide NDRG1 S330 [R].TASGSSVTSLDGTR.[S]” value (DMSO +IFNg = 2.29) is 1.88. For the same compound, for the setting “DMSO +IFNg = 2.31”, the “Intensity of phospho-peptide STK11IP S398 [R].RASISEPSDTDPEPR.[T]” value was 0.58. Further, the “Intensity of phospho-peptide EIF4B S422 [R].TGSESSQTGTSTTSSR.[SN]” value (DMSO +IFNg = 2.58) was 1.29. Moreover, for the setting “DMSO +IFNg = 2.80”, the “Intensity of phospho-peptide SPECC1L T838 [R].RSSTSSEPTPTVK.[T]” value worked out at 1.80. The “Intensity of phospho-peptide AKT1S1 T266 [R].LNTSDFQK.[L]” value (DMSO +IFNg = 3.11) stood at 0.89. Further, for the setting “DMSO +IFNg = 3.46”, the “Intensity of phospho-peptide RPS6 S235; S236 [R].RLSSLRASTSK.[S]” value was determined as 1.65. For the setting “DMSO +IFNg = 3.67”, the “Intensity of phospho-peptide FLNA S2152 [R].RAPSVANVGSHCDLSLK.[I]” value stood at 1.32.
